Data taken from patent US10370642B2, “Hematopoietic progenitor cell populations having affinity for E-selectin / L-selectin” (priority 2000, dated 2019).

Assays:
Assay type in all cases: cell-based, human
[1] = test system: KG1a cells; assay: L-selectin ligand activity of treated KG1a cells, parallel-plate flow chamber; conditions: thoracic duct lymphocytes, shear stress 4.4 dynes/cm^2
Protocol: Leukocyte tethering and rolling on human HC monolayers was visualized by video microscopy in real time using the parallel-plate flow chamber prepared in the following manner. Prior to experimentation, leukocytes were washed twice in HBSS and then suspended at 10^7/ml in HBSS/10 mM HEPES/2mMCaCl2 (H/H/Ca^++). […] To prepare human HC monolayers (100% confluent), suspensions of HCs (KG 1a, HL60, RPMI 8402, K562) at 2×10^6/ml RPMI-1640 without Na+Bicarbonate/2% FBS were seeded in 6-well plates at 5×10^6/well, centrifuged to layer cells then fixed in 3% glutaraldehyde. Reactive aldehyde groups were blocked in 0.2M lysine, and plated cells were suspended H/H/Ca^++. To assess the dependence of binding by sialic acid residues on L-selectin ligands, cells were pretreated with Vibrio cholerae neuraminidase (0.1 U/mlH/H/Ca^++ for lhr at 37° C.). To examine the contribution of sialomucins (including PSGL-1) and PSGL-1 alone, OSGE (60 μg/ml H/H/Ca^++ for lhr at 37° C.) or mocarhagin (10 μg/ml for 20 min at 37° C.) treatments were performed, respectively. […] The number of leukocytes rolling in one frame of five independent fields under 200× magnification at shear stress of 0.2, 0.4, 0.8, 2.2, 4.4, 8.8, 17.6 and 26.4 dynes/cm^2 were quantified. A minimum of 3 experiments was performed over the entire range of shear stress and results were expressed as the mean±standard deviation.

[2] = test system: HL60 cells; assay: CHO-E cell rolling on glutaraldehyde-fixed HL60 monolayers; conditions: 2.8 dynes/cm^2; EDTA 5 mM; HECA 452 50 μg/ml
Excerpt: (§1) E-selectin-mediated adhesive interactions, under defined shear stress, were examined between hematopoietic cell monolayers and suspensions of CHO-E (Chinese hamster ovary cells stably transfected with full-length cDNA encoding human E-selectin) in flow. CHO-E and empty vector constructs (CHO-Mock) were maintained in MEM 10% FBS/1% Penicillin/Streptomycin (Life Technologies, Inc.) and HAM's F-12 (Cellgro, Inc.)/5% FCS/1% Penicillin/Streptomycin, respectively. CHO-E cell tethering and rolling on hematopoietic cell monolayers was visualized by video microscopy in real time using the parallel-plate flow chamber. […] To prepare hematopoietic cell monolayers>90% confluent, suspensions of cells (KG1a, HL60, K562, or RPMI 8402) at 2×10^6/ml RPMI1640 without NaBicarbonate/2% FBS were cytocentrifuged in […] plates at 5×10^6/well and then fixed in 3% glutaraldehyde. Reactive aldehyde groups were blocked in 0.2M lysine, and plated cells were suspended H/H/Ca++. […] The number of CHO-E/Mock cell rolling on each monolayer was measured in one frame of five independent fields under 10× magnification from multiple experiments. A minimum of 3 experiments was performed and results were expressed as the mean±standard deviation.

[3] = test system: KG1a cells; assay: CHO-E cell rolling on glutaraldehyde-fixed KG1a monolayers; conditions: 2.8 dynes/cm^2; EDTA 5 mM; HECA 452 50 μg/ml
Excerpt: as §1

“neuraminidase: Vibrio cholerae neuraminidase, cleaves terminal sialic acids” was tested, and the “% Control Mean Lymphocyte Binding” value [1] was 0.3 % Control, the “CHO-E cell rolling / E-selectin ligand activity of HL60 cells” value [2] was “completely inhibited” and the “CHO-E cell rolling / E-selectin ligand activity of KG1a cells” value [3] was “completely inhibited”.
